{"source": "patent US5620676A", "about": "“Biologically active ATP analogs” (priority 1995, dated 1997)", "tested_on": "P2X receptor (rat urinary bladder membranes)", "test": "Displacement of [3H]-α,β-methylene-ATP from rat urinary bladder membranes", "type": "binding", "conditions": "about 10 nM [3H]-α,β-MeATP", "experimental": "Certain ATP analogs known to bind to P2Y receptors, as disclosed in Examples 4-9, were tested on membrane preparations of urinary bladder, which is known to include P2X receptors (See, e.g., Lukacsko et al., Eur. J. Pharmacol., 80, 401-406 (1982)). The assay used is predicated on the specific displacement of […] known to bind at the P2X receptor, namely α,β-methylene-ATP.\nFor this assay, male Wistar rats (200-250 g) were killed by asphyxiation with CO2. […] The pellets were washed and suspended in buffer A and the protein content was determined using the method of Peterson (Anal. Biochem., 83, 346-356 (1977)).\nDisplacement experiments were carried out by incubating the membrane preparations with about 10 nM [^3 H]-α,β-MeATP and various concentrations of an unlabeled ligand in buffer A at 4° C. for 120 min (final volume 0.5 ml). […] The filters were washed with 2 aliquots of 5 ml ice-cold 5 mM Tris/HCl buffer, pH 7.4, dried under an infrared lamp, and then the radioactivity trapped in the filters was measured in a Beckman SC6100 I scintillation counter with an efficiency of about 56 to 61%. Non-specific binding was determined by including 100 μM β,γ-methylene-ATP in the incubation mixture.", "data": [{"smiles": "C=CCCCCSc1nc(NC)c2ncn([C@@H]3O[C@H](COP(=O)(O)OP(=O)(O)OP(=O)(O)O)[C@@H](O)[C@H]3O)c2n1", "note": "[N^6 -Me-2-(5-hexenyl)-thio-ATP, N^6 -Me-2-(5-hexenylthio)adenosine 5'-triphosphate]", "values": [{"measurement": "P2X binding in words", "value": "two orders of magnitude greater concentration"}]}]}
